Data: patent publication US8871794B2, “Small-molecule agonists for type-2 orexin receptor” (Board of Regents, The University of Texas System, priority 2008, dated 2014)
Like-named read-outs stand apart in the source and are kept apart here.

Key:
[1] = IP pharmacokinetics in C57BL/6 mice (plasma and brain); type: in vivo, mouse; conditions: for AUC / Clearance / Kp / Cmax / half-life: IP 20 mg/kg; for Kp: brain/plasma, ip, 20 mg/kg; for half-life: read-out: Terminal half life
Experimental: Pharmacokinetics: Methods: Chembridge Compound 6037874 (“Yan7874”) was provided as a powdered stock and dissolved in DMSO at 50 mg/ml. The compound was formulated as 5% DMSO/5% Cremaphor EL/90% 5% dextrose, pH 7.2 such that compound could be administered to mice at 10-20 mg/kg in a volume of 0.2 ml by IV bolus.
A second experiment was conducted using 24 C57BL/6 mice (NCI, male, 6 weeks of age). These mice were weighed and injected with 20 mg/kg of compound formulated as described above IP in 0.2 ml. […] The mice were sacrificed as above in groups of three by inhalation overdose of CO2 and blood and brain obtained and processed as above.
An analytical method was developed to detect Yan7874 using LC/MS/MS.
A standard curve was developed in plasma in the following manner. 100 μl of plasma is spiked with varying concentrations of Yan7874. The plasma is allowed to sit 10′ at room temperature after vortexing. 200 μl of acetonitrile is added to precipitate plasma proteins and release bound drug. After vortexing, the sample is incubated 10′ at room temperature. 700 μl of PBS is added and the sample is centrifuged at 14,000 rpm in a standard microcentrifuge for 5′. 900 μl of supernatant is added to 1 ml of PBS. The entire sample is passed over a Waters OASIS HLB solid phased extraction column already primed by addition of 2 ml methanol and 2 ml H2O. The column is washed once with 2 ml of 5% methanol/2% NH4OH in H2O and once with 2 ml of 5% methanol/2% acetic acid in H2O and compound is eluted by addition of 2 ml of methanol containing 2% NH4OH. 500 μl of this is added to 500 μl of H2O containing 0.2% formic acid (final formic acid 0.1%). Samples are prepared in the same manner without addition of spiked compound. Brain tissue is prepared by homogenizing in 3× volume of PBS (weight in grams×3=volume in ml to add). 100 μl of blank brain lysate is used for preparation of standard curve samples while 100 μl of sample brain lysate is used for preparation of samples. To calculate brain levels, the concentration in ng/ml calculated from the standard curve is multiplied by the total volume of lysate (a value in ml estimated from the 3× volume of PBS added +1× volume to account for brain tissue itself) and then divided by the weight of the brain in grams. A value of 3× above the signal obtained from blank plasma or brain lysate is designated the limit of detection (LOD). The LOD for plasma is 2640 and for brain 459. The limit of quantitation (LOQ) is the lowest concentration at which back calculation yields a concentration within 20% of theoretical. The LOQ for both plasma and brain is 5 ng/ml. In general back calculation of points on both curves yielded values within 20% of theoretical over 4 orders of magnitude (10,000 to 5 ng/ml) for both sample types.

[2] = test system: No Receptor_CRE; assay: CRE reporter assay, no receptor control; type: cell-based
[3] = target: T1, OX1R (Homo sapiens, UniProt O43613); assay: Intracellular Calcium Transient Assay in OX1R-expressing CHO cells; type: cell-based
T1 construct: Open reading frames of OX1R, OX2R and GRP (control) receptor were inserted into a bicistronic retrovirus expression vector; expressed in transfected cells; host or cells: CHO cells harboring ecotropic retroviral receptor, infected with retrovirus and selected with puromycin
T1 sequence (O43613 1-425): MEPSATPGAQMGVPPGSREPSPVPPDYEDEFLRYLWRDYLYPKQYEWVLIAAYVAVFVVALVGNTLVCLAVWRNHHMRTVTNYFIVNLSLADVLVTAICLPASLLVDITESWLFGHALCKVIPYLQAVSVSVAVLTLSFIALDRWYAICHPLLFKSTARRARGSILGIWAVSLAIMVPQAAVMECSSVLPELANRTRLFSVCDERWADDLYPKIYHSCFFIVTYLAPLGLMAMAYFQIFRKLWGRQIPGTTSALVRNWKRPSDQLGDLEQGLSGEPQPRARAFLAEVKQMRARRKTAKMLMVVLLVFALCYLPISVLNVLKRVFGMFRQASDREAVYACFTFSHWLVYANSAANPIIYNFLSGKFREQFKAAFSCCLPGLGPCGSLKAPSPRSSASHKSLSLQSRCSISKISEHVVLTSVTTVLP
Experimental: DNA Construction: Open reading frames of OX1R, OX2R and GRP (control) receptor were inserted into a bicistronic retrovirus expression vector, pMXs-IRES-puror (pMXs-IP), which carried a FLAG™ epitope cDNA sequence at the beginning of the ORF sequences encoding their human polypeptides.
Transfection and retrovirus production: Transfection was carried out using FuGENE 6 (Roche Diagnostics Corp.) according to the manufacturer's recommendations. Retroviruse fluid was harvested after 48 hours post transfection.
Cell lines: To generate receptor expressing cells, CHO cells harboring ecotropic retroviral receptor were infected with a retroviral supernatant. After 24 hours post infection, the retrovirus supernatant was removed and infected cells were selected with 10 μg/ml of puromycin (Sigma-Aldrich, St. Louis, Mo.). […]
0.5 ml aliquot of the cell suspension was stimulated by addition of 5 μl of compound dissolved in DMSO. Changes of [Ca^2+]i transients in cells were measured at RT by using CAF-110 Intracellular Ion Analyser (JASCO, Tokyo) with the excitation wave lengths of 340 nm and 380 nm and emission wavelength of 500 nm

For `Cc1ccc(Cn2c(=N)n(CC(O)c3ccc(Cl)c(Cl)c3)c3ccccc32)cc1` (stereo not shown) [Compound 130699], the “acute reaction after injection” value ([1]; 20 mg/kg IP) was “no acute reactions were noted”, the AUC ([1]; brain) was 133,194 min*ng/g and the Clearance ([1]; brain) was 2.9 g/min. For the same compound, the Clearance ([1]; plasma) was 2.7 mL/min, the Kp ([1]; male, C57BL/6, mouse, read-out: Blood Brain Penetration Ratio: AUC brain/AUC plasma) was 0.9 and the Kp ([1]; male, C57BL/6, mouse, read-out: Blood Brain Penetration Ratio: Cmax brain/Cmax plasma) was 0.3. The Cmax ([1]; male, C57BL/6, mouse, brain) was 337 ng/g, the half-life ([1]; male, C57BL/6, mouse, brain) was 204 min and the Cmax ([1]; male, C57BL/6, mouse, plasma) was 1080 ng/mL. The AUC ([1]; male, C57BL/6, mouse, plasma, read-out: AUC (converted)) was 2400 ng·h/mL, the half-life ([1]; male, C57BL/6, mouse, plasma) was 165 min and the “Fold Induction, No Receptor_CRE” value [2] was 0.797. For the same compound, the “Ca2+ response” value [3] was “weaker response”.
